Results taken from publication PMC7252619 (PLoS ONE, 2020).

Tests used:
[1] = target: VEGFR2 (Homo sapiens, UniProt P35968); assay: Kinase activity test (ReactionBiology), % enzyme activity relative to DMSO; type: biochemical; design: purchased ReactionBiology; settings: VEGFR2; for % Enzyme Activity (relative to DMSO controls), Data 1: replicate Data 1; for % Enzyme Activity (relative to DMSO controls), Data 2: replicate Data 2;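 as to all read-outs here: VEGFR2 was one member of a ten-kinase screening panel testing marketed FDA-approved drugs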
Sequence of VEGFR2 (P35968 20-1356): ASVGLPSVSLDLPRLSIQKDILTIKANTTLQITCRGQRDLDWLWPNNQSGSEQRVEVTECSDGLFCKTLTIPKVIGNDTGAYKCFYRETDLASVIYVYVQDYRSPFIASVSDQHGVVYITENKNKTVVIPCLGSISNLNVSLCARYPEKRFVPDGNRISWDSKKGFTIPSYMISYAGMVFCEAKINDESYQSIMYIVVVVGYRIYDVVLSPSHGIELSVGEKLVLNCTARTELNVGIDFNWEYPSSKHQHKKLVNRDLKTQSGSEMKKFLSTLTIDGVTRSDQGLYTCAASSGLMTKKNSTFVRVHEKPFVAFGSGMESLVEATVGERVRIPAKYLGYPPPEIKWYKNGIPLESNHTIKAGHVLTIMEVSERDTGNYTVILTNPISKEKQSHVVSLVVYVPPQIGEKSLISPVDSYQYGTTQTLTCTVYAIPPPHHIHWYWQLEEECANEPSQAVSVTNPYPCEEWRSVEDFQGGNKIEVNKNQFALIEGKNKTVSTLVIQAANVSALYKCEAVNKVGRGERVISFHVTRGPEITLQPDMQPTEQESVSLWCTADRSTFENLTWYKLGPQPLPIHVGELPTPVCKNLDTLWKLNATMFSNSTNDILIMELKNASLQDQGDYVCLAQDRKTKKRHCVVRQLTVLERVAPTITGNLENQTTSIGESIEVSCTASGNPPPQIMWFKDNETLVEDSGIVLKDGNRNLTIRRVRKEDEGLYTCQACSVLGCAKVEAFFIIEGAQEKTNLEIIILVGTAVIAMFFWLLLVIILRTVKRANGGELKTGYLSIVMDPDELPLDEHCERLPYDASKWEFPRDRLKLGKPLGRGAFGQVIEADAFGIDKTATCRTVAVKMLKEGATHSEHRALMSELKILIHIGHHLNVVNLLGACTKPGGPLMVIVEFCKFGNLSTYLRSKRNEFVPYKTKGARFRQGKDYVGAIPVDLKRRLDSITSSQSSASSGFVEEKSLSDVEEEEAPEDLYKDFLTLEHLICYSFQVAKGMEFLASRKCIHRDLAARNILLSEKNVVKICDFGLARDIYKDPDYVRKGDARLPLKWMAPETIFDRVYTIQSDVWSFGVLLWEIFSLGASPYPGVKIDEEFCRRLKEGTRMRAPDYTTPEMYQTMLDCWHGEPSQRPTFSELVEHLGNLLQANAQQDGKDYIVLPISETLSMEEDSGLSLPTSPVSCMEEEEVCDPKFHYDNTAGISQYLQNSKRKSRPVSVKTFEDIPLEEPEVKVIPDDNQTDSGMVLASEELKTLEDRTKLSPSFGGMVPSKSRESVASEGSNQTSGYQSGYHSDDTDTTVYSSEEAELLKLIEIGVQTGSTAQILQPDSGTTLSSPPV

[2] = target: T1, CK1d (Homo sapiens, UniProt P48730); assay: as above; type: biochemical; settings: CK1d; for % Enzyme Activity (relative to DMSO controls), Data 1: replicate Data 1; for % Enzyme Activity (relative to DMSO controls), Data 2: replicate Data 2
T1 construct: purchased ReactionBiology
T1 sequence (P48730 whole entry): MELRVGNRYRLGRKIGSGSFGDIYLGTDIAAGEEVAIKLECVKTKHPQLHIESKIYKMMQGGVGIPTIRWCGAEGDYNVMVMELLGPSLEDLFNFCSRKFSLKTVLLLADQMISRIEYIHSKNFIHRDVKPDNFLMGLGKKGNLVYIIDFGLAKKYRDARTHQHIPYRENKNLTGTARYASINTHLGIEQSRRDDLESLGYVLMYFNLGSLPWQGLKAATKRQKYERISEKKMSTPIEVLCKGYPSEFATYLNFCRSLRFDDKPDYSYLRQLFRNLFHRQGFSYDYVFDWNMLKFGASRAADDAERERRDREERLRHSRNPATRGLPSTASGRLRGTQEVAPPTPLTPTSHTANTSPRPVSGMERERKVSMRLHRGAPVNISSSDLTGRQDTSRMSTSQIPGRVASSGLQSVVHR

Row | Structure (SMILES) | % Enzyme Activity (relative to DMSO controls), Average ([1]; 1 uM) | % Enzyme Activity (relative to DMSO controls), Data 1 ([1]; 1 uM) | % Enzyme Activity (relative to DMSO controls), Data 2 ([1]; 1 uM) | % Enzyme Activity (relative to DMSO controls), Average ([1]; 10 uM) | % Enzyme Activity (relative to DMSO controls), Data 1 ([1]; 10 uM) | % Enzyme Activity (relative to DMSO controls), Data 2 ([1]; 10 uM) | % Enzyme Activity (relative to DMSO controls), Average ([2]; 1 uM) | % Enzyme Activity (relative to DMSO controls), Data 1 ([2]; 1 uM) | % Enzyme Activity (relative to DMSO controls), Data 2 ([2]; 1 uM) | % Enzyme Activity (relative to DMSO controls), Average ([2]; 10 uM) | % Enzyme Activity (relative to DMSO controls), Data 1 ([2]; 10 uM) | % Enzyme Activity (relative to DMSO controls), Data 2 ([2]; 10 uM)
1 | CC(=O)[C@]1(O)Cc2c(O)c3c(c(O)c2[C@@H](O[C@H]2C[C@H](N)[C@H](O)[C@H](C)O2)C1)C(=O)c1ccccc1C3=O [Idarubicin] | 111.69% | 111.85% | 111.52% | 106.65% | 105.86% | 107.43% |  |  |  |  |  | 
2 | CC1(C)S[C@@H]2[C@H](NC(=O)[C@H](N)c3ccccc3)C(=O)N2[C@H]1C(=O)O [Ampicillin] | 99.13% | 103.06% | 95.2% | 96.01% | 95.11% | 96.91% |  |  |  |  |  | 
3 | CCCCC[C@H](O)/C=C/[C@H]1[C@H](O)CC(=O)[C@@H]1CCCCCCC(=O)O [Alprostadil] |  |  |  |  |  |  | 100.17% | 100.59% | 99.74% | 106.64% | 108.06% | 105.21%
4 | CC(C)(Oc1ccc(CCNC(=O)c2ccc(Cl)cc2)cc1)C(=O)O [Bezafibrate] | 106.10% | 100.57% | 111.63% | 106.53% | 106.16% | 106.89% |  |  |  |  |  | 
5 | C[C@]12CC[C@@H]3c4ccc(O)cc4CC[C@H]3[C@@H]1CCC2=O [Estrone] | 106.40% | 108.92% | 103.87% | 104.79% | 105.29% | 104.29% |  |  |  |  |  | 
6 | CO[C@@]12[C@H](COC(N)=O)C3=C(C(=O)C(C)=C(N)C3=O)N1C[C@@H]1N[C@@H]12 [Mitomycin] |  |  |  |  |  |  | 98.48% | 100.68% | 96.28% | 158.59% | 209.38% | 107.8%
7 | CCCCNc1ccc(C(=O)OCCN(C)C)cc1 [Tetracaine] |  |  |  |  |  |  | 110.04% | 103.65% | 116.43% | 118.78% | 119.29% | 118.26%
8 | CC(C)Nc1cccnc1N1CCN(C(=O)c2cc3cc(NS(C)(=O)=O)ccc3[nH]2)CC1 [Delavirdine] |  |  |  |  |  |  |  |  |  | 101.06% |  | 
9 | CC(C)CN(C[C@@H](O)[C@H](Cc1ccccc1)NC(=O)O[C@H]1CCOC1)S(=O)(=O)c1ccc(N)cc1 [Amprenavir] |  |  |  |  |  |  | 107.55% |  |  |  |  | 
